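Each compound was tested at five concentrations against cells in 96-well plates for 48 hours. The concentration for 50% growth inhibition is given as GI50.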 Activity calls are given as the source filed them. No stated cut-off is given here; in the data, active = GI50 up to about 1.1 µM and inactive = higher. Where a SMILES comes first, the peptide text is derived from it. [ ]: non-standard residue; d: D form. The star is where a group is joined. Phe(4-NO2) = N[CH](Cc1ccc([N+](=O)[O-])cc1)C(=O)O; Boc = CC(C)(C)OC(=O)*; OBn = c1ccc(CO*)cc1
Columns and labels:
Assay in all cases: growth of human tumour cells (NCI), 48 h
A549 = system: A549
COLO 205 = system: COLO 205
HCC 2998 = system: HCC 2998
HOP-62 = system: HOP-62
KM12 = system: KM12
LOX IMVI = system: LOX IMVI
MCF7 = system: MCF7
NCI-H226 = system: NCI-H226
NCI/ADR-RES = system: NCI/ADR-RES
OVCAR-3 = system: OVCAR-3
PC-3 = system: PC-3
RPMI-8226 = system: RPMI-8226
SF-268 = system: SF-268
SK-OV-3 = system: SK-OV-3
SN12C = system: SN12C
SW-620 = system: SW-620
TK-10 = system: TK-10
U-251 = system: U-251
UO-31 = system: UO-31
K562 = system: K562

Row | SMILES | GI50 (A549) | GI50 (COLO 205) | GI50 (HCC 2998) | GI50 (HOP-62) | GI50 (KM12) | GI50 (LOX IMVI) | GI50 (MCF7) | GI50 (NCI-H226) | GI50 (NCI/ADR-RES) | GI50 (OVCAR-3) | GI50 (PC-3) | GI50 (RPMI-8226) | GI50 (SF-268) | GI50 (SK-OV-3) | GI50 (SN12C) | GI50 (SW-620) | GI50 (TK-10) | GI50 (U-251) | GI50 (UO-31) | GI50 (K562)
1 | Cc1occc1C(=S)Nc1ccc(Cl)c(C(=O)OC(C)C2CC2)c1 (stereo unspecified) | 35.2 µM (inactive) | 20.1 µM (inactive) | 20.3 µM (inactive) | 17.8 µM (inactive) | 16.3 µM (inactive) | 19.4 µM (inactive) | 26 µM (inactive) | 15.5 µM (inactive) | 19.3 µM (inactive) | 16.6 µM (inactive) | 18.9 µM (inactive) | 24.8 µM (inactive) | 22.6 µM (inactive) | 21.6 µM (inactive) | 18 µM (inactive) | 35.8 µM (inactive) | 37.5 µM (inactive) | 23.9 µM (inactive) | 14.7 µM (inactive) | 
2 | Nc1ccc(-c2nc3cc(F)ccc3s2)cc1Br | 8.97 µM (inactive) | 0.377 µM (active) | < 0.01 µM (active) | 12.7 µM (inactive) | 10.4 µM (inactive) | > 51.2 µM (inactive) | < 0.0111 µM (active) | 0.0504 µM (active) | > 56.8 µM (inactive) | 0.0964 µM (active) | 26.6 µM (inactive) | > 78.2 µM (inactive) | 42 µM (inactive) | > 59 µM (inactive) | > 73.5 µM (inactive) | > 93.8 µM (inactive) | 0.0306 µM (active) | 18.1 µM (inactive) | 37.6 µM (inactive) | 
3 | COc1ccc(-c2c(C#N)c(-c3ccccc3)n(NS(=O)(=O)c3ccccc3)c(=O)c2C#N)cc1 | > 100 µM (inactive) | > 100 µM (inactive) | 81.5 µM (inactive) | 95.1 µM (inactive) | > 100 µM (inactive) | 60.4 µM (inactive) | 50.5 µM (inactive) | > 100 µM (inactive) | 53.3 µM (inactive) |  | 59 µM (inactive) | 29.2 µM (inactive) | 97.3 µM (inactive) | > 100 µM (inactive) | > 100 µM (inactive) | > 100 µM (inactive) | > 100 µM (inactive) | 71.8 µM (inactive) |  | 65.9 µM (inactive)
4 | CC1=NN(c2nc(N)nc(CCl)n2)C(C)(C)C1 | 42.6 µM (inactive) | 22.9 µM (inactive) | 27.1 µM (inactive) | 3.67 µM (inactive) | 19.3 µM (inactive) | 1.78 µM (inactive) | 45 µM (inactive) | 38.1 µM (inactive) | 14.4 µM (inactive) | 14.1 µM (inactive) | 40.8 µM (inactive) | 25.6 µM (inactive) | 20.6 µM (inactive) | > 56 µM (inactive) | 30.3 µM (inactive) | 25.6 µM (inactive) | > 71.6 µM (inactive) | 25.4 µM (inactive) | 9.02 µM (inactive) | 27.2 µM (inactive)
5 | NS(=O)(=O)c1ccc(/N=N/c2nc3nc(O)nc(O)c3[nH]2)cc1 | > 100 µM (inactive) | > 100 µM (inactive) | > 100 µM (inactive) | > 100 µM (inactive) | > 100 µM (inactive) | > 100 µM (inactive) | > 100 µM (inactive) | > 100 µM (inactive) | > 100 µM (inactive) | > 100 µM (inactive) | > 100 µM (inactive) | > 100 µM (inactive) | > 100 µM (inactive) | > 100 µM (inactive) | > 100 µM (inactive) | > 100 µM (inactive) | > 100 µM (inactive) | > 100 µM (inactive) | > 100 µM (inactive) | > 100 µM (inactive)
6 | O=C1SC(SCc2ccccc2)=NC12CC2c1ccccc1 (stereo unspecified) | 26.9 µM (inactive) | 23.4 µM (inactive) | 7.62 µM (inactive) | 29 µM (inactive) | 17.7 µM (inactive) | 18.8 µM (inactive) | 18.8 µM (inactive) | 23.6 µM (inactive) | 23.9 µM (inactive) | 27.7 µM (inactive) | 23.3 µM (inactive) | 16.7 µM (inactive) | 27 µM (inactive) | 37.7 µM (inactive) | 20 µM (inactive) | 22.4 µM (inactive) | 25.6 µM (inactive) | 18.3 µM (inactive) | 19.5 µM (inactive) | 19.5 µM (inactive)
7 | COC(=O)CCC(NC(=O)OC(C)(C)C)C(=O)NC(Cc1ccc([N+](=O)[O-])cc1)C(=O)NCC(=O)OCc1ccccc1 (stereo unspecified) (Boc-Glu(OMe)-[Phe(4-NO2)]-Gly-OBn; configuration not given here) | > 100 µM (inactive) | 38.7 µM (inactive) | 99.8 µM (inactive) | 27.8 µM (inactive) | > 100 µM (inactive) | > 48.2 µM (inactive) | > 100 µM (inactive) | > 64.1 µM (inactive) | > 80.7 µM (inactive) | > 100 µM (inactive) | > 100 µM (inactive) | > 100 µM (inactive) | 37.2 µM (inactive) | > 82.2 µM (inactive) | > 100 µM (inactive) | > 100 µM (inactive) | > 100 µM (inactive) | 55.3 µM (inactive) | > 100 µM (inactive) | > 100 µM (inactive)
8 | CC1=NN(c2nc(N)nc(/C(C#N)=C/c3ccncc3)n2)C(C)(C)C1 |  | > 100 µM (inactive) | > 100 µM (inactive) | > 100 µM (inactive) | > 100 µM (inactive) | > 100 µM (inactive) | 91.8 µM (inactive) | > 100 µM (inactive) | > 100 µM (inactive) |  | > 100 µM (inactive) | > 100 µM (inactive) | > 100 µM (inactive) | > 100 µM (inactive) |  | > 100 µM (inactive) | > 100 µM (inactive) | > 100 µM (inactive) | > 100 µM (inactive) | 13.5 µM (inactive)
9 | CN(C)CCCSc1nc2c(c(=N)n1-c1ccccc1)c(=S)n(-c1ccccc1)c(=S)n2-c1ccccc1 | 1.95 µM (inactive) | 1.9 µM (inactive) | 1.45 µM (inactive) | 1.8 µM (inactive) | 1.83 µM (inactive) | 1.29 µM (inactive) | 0.383 µM (active) | 4.74 µM (inactive) | 2.59 µM (inactive) | 1.75 µM (inactive) | 1.75 µM (inactive) | 0.39 µM (active) | 1.73 µM (inactive) | 2.65 µM (inactive) | 1.74 µM (inactive) | 1.79 µM (inactive) | 1.71 µM (inactive) | 1.75 µM (inactive) |  | 0.459 µM (active)
10 | COc1cc(/C=C2\NC(=O)N(/C=C3\C(=O)Oc4ccccc4C3=O)C2=O)ccc1O | > 100 µM (inactive) | 78.2 µM (inactive) | 41.2 µM (inactive) | 61.2 µM (inactive) | 54.1 µM (inactive) | 49.5 µM (inactive) | > 100 µM (inactive) | > 100 µM (inactive) | > 100 µM (inactive) |  | 64 µM (inactive) | > 100 µM (inactive) | 57.1 µM (inactive) | 51.1 µM (inactive) | 54.3 µM (inactive) | > 100 µM (inactive) | > 100 µM (inactive) | 76.6 µM (inactive) | 44.4 µM (inactive) | > 100 µM (inactive)
11 | CC1CC(OP(=O)(OCc2ccccc2)OCc2ccccc2)[C@@H](OCc2ccccc2)C(OCc2ccccc2)C1OCc1ccccc1 (stereo partly specified) | 24.7 µM (inactive) | > 100 µM (inactive) | > 100 µM (inactive) | > 100 µM (inactive) |  | > 100 µM (inactive) | 40.2 µM (inactive) | > 100 µM (inactive) | > 100 µM (inactive) |  | 23.4 µM (inactive) | > 100 µM (inactive) | 62.7 µM (inactive) | > 100 µM (inactive) | > 100 µM (inactive) | > 100 µM (inactive) | 22.2 µM (inactive) | 20.1 µM (inactive) | 15.5 µM (inactive) | 76.9 µM (inactive)
12 | C[C@@H](NC(=O)Nc1cccc(C(=O)Nc2cc(C(C)(C)C)ccc2C(=O)O)n1)c1ccccc1 | 44.3 µM (inactive) | 27.3 µM (inactive) | 50.8 µM (inactive) | 28.4 µM (inactive) | 55.1 µM (inactive) | 19.3 µM (inactive) | 16.4 µM (inactive) | 38.3 µM (inactive) | > 100 µM (inactive) | 21.4 µM (inactive) | 25.1 µM (inactive) | 41.8 µM (inactive) | 46.8 µM (inactive) | 43.8 µM (inactive) | 49.8 µM (inactive) | 39 µM (inactive) |  | 16.1 µM (inactive) | 40.1 µM (inactive) | 42.5 µM (inactive)
13 | Oc1[nH]c(Nc2ccc(F)c(Cl)c2)nc2ncnc1-2 | > 100 µM (inactive) | > 100 µM (inactive) | > 100 µM (inactive) | > 100 µM (inactive) | > 100 µM (inactive) | > 100 µM (inactive) | > 100 µM (inactive) | > 100 µM (inactive) | > 100 µM (inactive) | > 100 µM (inactive) | > 100 µM (inactive) | > 100 µM (inactive) | > 100 µM (inactive) | > 100 µM (inactive) | > 100 µM (inactive) | > 100 µM (inactive) | > 100 µM (inactive) | 99.1 µM (inactive) | > 100 µM (inactive) | 
14 | CSc1nc(SC)c2c(C)c(Br)[nH]c2n1 | > 100 µM (inactive) | > 100 µM (inactive) | > 100 µM (inactive) | > 100 µM (inactive) | > 100 µM (inactive) | > 100 µM (inactive) | 30.9 µM (inactive) | > 100 µM (inactive) | > 100 µM (inactive) | > 100 µM (inactive) | > 100 µM (inactive) | > 100 µM (inactive) | > 100 µM (inactive) | > 100 µM (inactive) | > 100 µM (inactive) | > 100 µM (inactive) | > 100 µM (inactive) | > 100 µM (inactive) | > 100 µM (inactive) | 

Source: ChEMBL document CHEMBL1201862, “PubChem BioAssay data set” (2004)
